# Measured values as given in PMC9061853, “Luminescent bis(benzo[d]thiazolyl)quinoxaline: facile synthesis, nucleic acid and protein BSA interaction, live-cell imaging, biopharmaceutical research and cancer theranostic application” (RSC Advances, 2019).
# Columns and labels:
# HeLa = assay: MTT cytotoxicity assay, HeLa; type: cell-based, human; settings: for IC50: 24 h incubation; for SF (selectivity factor) HeLa: ratio of IC50 for HEK-293 to IC50 for HeLa
# Description: (§1) Cytotoxicity studies were performed for all the synthesized quinoxaline compounds (7a–7g) using standard 3-(4,5-dimethylthiazol-2-yl)-2,5-diphenyltetrazolium bromide (MTT) assay beside a panel of cancer cell lines such as human epithelioid cervix carcinoma (HeLa), human colorectal adenocarcinoma cell line (Caco-2) and one normal human embryonic kidney cells (HEK-293) in triplicates (Table 3). […] It is noteworthy to mention that Compound 7a and 7g presented best cytoselectivity in HeLa and Caco-2 cell lines respectively. […]
# (§2) In vitro cytotoxic activities (MTT assay):
# (§3) The basic detection of cytotoxicity of anticancer compounds in vitro is MTT assay. The MTT proliferation assay is based on the reduction of the yellow MTT tetrazolium salt (3-[4,5-dimethylthiazol-2-yl]-2,5diphenyltetrazolium bromide) by mitochondrial dehydrogenases to form a purple MTT formazan crystals in viable cells. Synthesized compounds (7a-g) were prior dissolved in 0.1% DMSO and then serial dilution with medium and used in the experiment. Three different types of cancer cell lines were used in this experiment i.e., human Epitheloid Cervix Carcinoma (HeLa), human colon cancer cell line (Caco-2) and one normal kidney cell (HEK-293) were used in the assay. The cells were harvested at the log phase and it is cell counted using haemocytometer. Approximately 1 × 10^3 cells per well were seeded using all the cell lines. They were cultured in 100 μL of a DMEM media in 96-well plates and incubated at 37 °C for 24 hours under a 5% CO2 atmosphere. The cells were then washed with 1X PBS buffer and fresh media was added to the cells. The cells were then treated with different concentrations of the drugs (0.65-150 µM) in the volume of […] /well. Cisplatin has been used as a standard positive control drug. The control wells contains the same cell count of 1 × 10^3 cells per well of 100 μL medium containing 0.1% DMSO. After 24 h (for HeLa cell and HEK-293) and 72 h (for Caco-2), the medium was discarded and it is washed with 1X PBS and it was incubated with 100 µl of MTT reagent (1 mg/ml) for 4 h at 37°C.
# (§4) Then the 96 well plate was placed on the shaker for 10 min and subsequently the absorbance was recorded by the ELISA reader at λ = 490 nm. The experiments were performed in […]
# (§5) triplicate. […]
# HEK-293 = assay: MTT cytotoxicity assay, HEK-293 normal cells; type: cell-based, human; settings: 24 h incubation
# Description: as §1, §2, §3, §4, §5
# [1] = Fluorescence quantum yield in water; type: physicochemical; settings: 298 K, quinine sulphate as standard
# Description: To know the absorption and emission behaviour of these synthesized compounds (7a–g), a standard concentration (3 × 10^−6 mol l^−1) in water has been used. In UV-vis spectra, λmax of all these compounds are observed at 320–330 nm due to π–π* transition (Fig. S1a ^†). The corresponding emission peaks are observed at 400–500 nm (Fig. S1b ^†). The emission of quantum yield (Φ) was calculated for all of the compounds (7a–g) using eqn (1) (Table S1 ^†). […]
# 2.6.2. Fluorescence study:
# To know the emission property of all the synthesized complexes (7a-g), an initial investigation was performed using spectrofluorometric method in water by using absorption maximum as their excitation energy. Fluorescence quantum yield (Ф) of all the prepared compounds performed in water solution were calculated by employing the comparative William's method which involves the use of well-characterized standard with the known quantum yield value. Quinine sulphate was used as reference fluorophore excited at 350 nm and emission at 452 nm, quantum yield (ФR) = 0.50 in 1N H2SO4. The gradients of the plots are proportional to the quantum yield (Ф) of the studied system. The data obtained and quantum yield value calculated according to the equation (2): […]
# Where, φ = Quantum yield, I = Peak Area, OD = absorbance at λmax, η = Refractive index of solvent and reference. Here, we have used Quinine Sulphate as a standard for calculating emission of quantum yield. […]
# Caco-2 = assay: MTT cytotoxicity assay, Caco-2; type: cell-based, human; settings: Homo sapiens, Caco-2; 72 h incubation
# Text: as §2
# as §3, with “/well.” for “/well. Cisplatin has been used as a standard positive control drug. The control wells contains the same cell count of 1 × 10^3 cells per well of 100 μL medium containing 0.1% DMSO. After 24 h (for HeLa cell and HEK-293) and 72 h (for Caco-2), the medium was discarded and it is washed with 1X PBS and it was incubated with 100 µl of MTT reagent (1 mg/ml) for 4 h at 37°C.”
# (§6) The control wells contains the same cell count of 1 × 10^3 cells per well of 100 μL medium containing 0.1% DMSO. After 24 h (for HeLa cell and HEK-293) and 72 h (for Caco-2), the medium was discarded and it is washed with 1X PBS and it was incubated with 100 µl of MTT reagent (1 mg/ml) for 4 h at 37°C.
# as §4, §5
# [2] = MTT cytotoxicity assay, Caco-2; type: cell-based, human; settings: human, Caco-2, ratio of IC50 for HEK-293 to IC50 for Caco-2; read-out: SF (selectivity factor) Caco-2
# Text: as §2
# as §3, with “/well.” for “/well. Cisplatin has been used as a standard positive control drug. The control wells contains the same cell count of 1 × 10^3 cells per well of 100 μL medium containing 0.1% DMSO. After 24 h (for HeLa cell and HEK-293) and 72 h (for Caco-2), the medium was discarded and it is washed with 1X PBS and it was incubated with 100 µl of MTT reagent (1 mg/ml) for 4 h at 37°C.”
# as §6, §4, §5
Structure (SMILES),IC50 (HeLa),IC50 (HEK-293),"Φ, emission quantum yield [1]",melting point,"IC50 (HeLa; Homo sapiens, HeLa)",SF (selectivity factor) HeLa (HeLa),"IC50 (HEK-293; Homo sapiens, HEK293)",IC50 (Caco-2),selectivity ratio [2]
"N.N.[Cl][Pt][Cl] [Cisplatin, reference compound]",14.5 ± 0.8 µM,50 ± 1.2 µM,,,,,,,
c1ccc(-c2nc3ccccc3s2)c(OCc2nc3ccccc3nc2COc2ccccc2-c2nc3ccccc3s2)c1 [Compound 7a],,,0.006,130 to 135 °C,73.1 ± 1.7 µM,1.6,120 ± 0.9 µM,69.8 ± 0.8 µM,1.71
Brc1ccc2nc(COc3ccccc3-c3nc4ccccc4s3)c(COc3ccccc3-c3nc4ccccc4s3)nc2c1 [Compound 7b],,,0.017,145 °C,> 100 µM,< 1.4,140 ± 1.4 µM,109 ± 0.8 µM,1.28
Clc1ccc2nc(COc3ccccc3-c3nc4ccccc4s3)c(COc3ccccc3-c3nc4ccccc4s3)nc2c1 [Compound 7c],,,0.017,150 °C,68.61 ± 0.2 µM,2.3,160 ± 2.1 µM,75 ± 3.5 µM,2.13
Fc1ccc2nc(COc3ccccc3-c3nc4ccccc4s3)c(COc3ccccc3-c3nc4ccccc4s3)nc2c1 [Compound 7d],,,0.04,135 to 139 °C,117 ± 5.4 µM,>1.7,> 200 µM,92 ± 4.9 µM,> 2.17
Fc1cc2nc(COc3ccccc3-c3nc4ccccc4s3)c(COc3ccccc3-c3nc4ccccc4s3)nc2cc1Cl [Compound 7f],,,0.014,,44.3 ± 0.3 µM,>4.5,> 200 µM,> 100 µM,> 2
